This note sets out measurements from patent US20260314594A1, “METHODS OF ENHANCING POLLEN VIABILITY OF PLANTS” (ACADEMIA SINICA, priority 2022, published 2026).

In experiment [1] the test system is Easter lily pollen. Nature of the experiment: Easter lily pollen germination in vitro (germination rate in germination medium). It is filed as cell-based, Easter lily (Lilium longiflorum Thunb. cv White Heaven). Here is the method:
Pollen and stigma exudate (SE) were collected from more than ten thousand Easter lily (Lilium longiflorum Thunb. cv White Heaven) flowers. After dehydration at room temperature for 4 to 5 days, pollen grains were collected from dehydrated anthers. Pistils were harvested and used for SE collection. In general, 20~50 μL SE collected from a single ‘White Heaven’ pistil will be stored at −20° C. for further usage.
(§1) Lily pollen was cultured in a germination medium (GM) containing 12.7 mM CaCl2), 1.62 mM H3BO3, 9.9 mM KNO3, and 10% sucrose, pH5.2 at 28° C. for 2 hours with shaking at 50 rpm in the dark. Tobacco (Nicotiana tabacum) pollen was germinated in GM containing 1 mM CaCl2), 1 mM KCl, 1.6 mM H3BO3, 5% sucrose, 30 μM CuSO4, 15 mM MES, and 12.5% PEG4000, pH 5.9 at 25° C. for 2 hours with shaking at 50 rpm in the dark. Arabidopsis (Arabidopsis thaliana, Col-0) pollen was germinated in GM containing 5 mM CaCl2), 1 mM MgSO4·5 mM KCl·0.01% H3BO3, 10% Sucrose, pH 7.5 at 25° C. for 2 hours with shaking at 50 rpm in the dark. An Olympus BX51 microscope recorded germinating pollen. Pollen germination rate was calculated using the formula below: Pollen germination rate (%)=number of germinated pollen grains per field of view by the total number of pollen grains per field of view X100.
(§2) ImageJ measured pollen tube length and Western blot band intensity quantification. All P-values were calculated by One-way ANOVA (Analysis Of Variance) and Tukey's post hoc tests with SPSS
To validate the effect of HOPA on the stimulation of pollen germination, lily pollen grains were cultured in the GM containing 0, 10, 50, 100, and 200 ppm (part per million) of artificial HOPA for different time intervals.
SE has shown its effect on restoring the lost germination capability of pollen stored at low temperatures for a specific period (FIGS. 1A-1E). To validate whether the purified HOPA is the cause to rescue pollen germination capability, pollen grains stored for different time intervals (1 day, 2.5, or 5 months) were subjected to germination assays with or without 100 ppm artificial HOPA present in the GM.
High temperature is an adverse factor for pollen viability (Rang et al., 2011). We further investigated the effect of HOPA on the restoration of pollen viability after heat damage. Freshly collected lily pollen were pre-heat treatments at 28, 37, and 42° C. for 4 hours, followed by subjecting for germination in the GM with or without HOPA at 28° C. for 2 hours.
Low temperature is another adverse factor for pollen germination and growth. […] For the control, about 8% of pollen was germinated after 3-hour culture, but HOPA rescued the pollen germination up to about 29% germination rate (FIGS. 6E-6F).

The test system of experiment [2] is Arabidopsis thaliana (Col-0) pollen. Description: Arabidopsis pollen germination in vitro. It is filed as cell-based. The following applies: HOPA at 25° C. for 2 hours; FIG. 8B: 200 ppm, 2.5 hours. The procedure:
as §1, with “Arabidopsis (Arabidopsis thaliana, Col-0) pollen was germinated in GM containing 5 mM CaCl2), 1 mM MgSO4·5 mM KCl·0.01% H3BO3, 10% Sucrose, pH 7.5 at 25° C. for 2 hours with shaking at 50 rpm in the dark.” left out
as §2
(§3) To investigate the possibility that HOPA can stimulate diverse-species pollen germination, we examined Nicotiana tabacum and Arabidopsis thaliana (Col-0) pollen in GM with or without HOPA at 25° C. for 2 hours. […] Those results reveal the promising universal function of HOPA in stimulating pollen germination.

The test system of experiment [3] is lily pollen tube. Nature of the experiment: Lily pollen tube elongation. It is filed as cell-based, Easter lily (Lilium longiflorum Thunb. cv White Heaven). The following applies: 100 ppm HOPA. The procedure: as §1, §2
We germinated lily pollen in GM with or without 100 ppm HOPA at 28° C. for different time intervals to obtain their growth rates.

Experiment [4] has as its system Nicotiana tabacum pollen. Description: Tobacco pollen germination in vitro. It is filed as cell-based. The note with it: HOPA at 25° C. for 2 hours; FIG. 8A: 50-1600 ppm, 1.5 hours. Here is the method:
as §1, with “Tobacco (Nicotiana tabacum) pollen was germinated in GM containing 1 mM CaCl2), 1 mM KCl, 1.6 mM H3BO3, 5% sucrose, 30 μM CuSO4, 15 mM MES, and 12.5% PEG4000, pH 5.9 at 25° C. for 2 hours with shaking at 50 rpm in the dark.” left out
as §2, §3

Take `CC(C)(CO)C(O)C(=O)NCCCC(=O)O` (centres unmarked) [HOPA, hopantenic acid]: the “pollen germination rate, HOPA dose response” value in experiment [1] (0, 10, 50, 100 and 200 ppm HOPA in GM, 28° C., FIG. 5: 2 hours, pollen stored at 4° C. one week) was “linear-gradient increase in a HOPA dosage-dependent manner”. For the same compound, the “pollen germination, significance of stimulation” value in experiment [1] (10-200 ppm HOPA, 28° C., 2 hours, pollen stored at 4° C. one week (FIGS. 5A-5G)) is given as “significantly stimulates Easter lily pollen germination”. Also, the “pollen germination rate at low temperature” value in experiment [1] (18° C., 3-hour culture, 100 ppm HOPA, control about 8% (FIGS. 6E-6F)) is listed as “about 29%”. Besides, the “pollen germination at low temperature, in words” value in experiment [1] (18° C., 3-hour growth, 100 ppm HOPA (FIGS. 6E-6F)) was “partially rescued pollen germination rate at low-temperature conditions”. Besides, the “pollen germination rates of HOPA compared with 1/10 SE” value in experiment [1] (100-200 ppm HOPA (FIG. 5G) vs 1/10 SE (about 785 ppm HOPA)) is “comparable effects in pollen germination rates”. Further, the “pollen germination of long-time stored pollen” value in experiment [1] (pollen stored at 4° C. for 1 day, 2.5 or 5 months, 100 ppm HOPA, 28° C., 2 hours (FIGS. 6A-6B)) is recorded as “validly stimulates pollen germination in all stored pollen grains, especially for 5-month stored pollen germination”. The “pollen germination after heat damage” value in experiment [1] (pre-heat treatment at 28, 37 and 42° C. for 4 hours, then 100 ppm HOPA at 28° C. for 2 hours (FIGS. 6C-6D)) is on record as “compromised the heat stress causing a decrease in pollen germination”. Moreover, the “Arabidopsis thaliana pollen germination” value in experiment [2] is given as “significantly stimulated”. Moreover, the “pollen tube elongation rate, in words” value in experiment [3] (28° C. (FIG. 7), compared to GM only) is recorded as “accelerated the pollen tube elongation rate”. In experiment [3] (28° C., different time intervals, control slope 0.0066 (FIG. 7)), the “pollen tube elongation rate (slope)” value is reported as 0.0109. In experiment [4], the “Nicotiana tabacum pollen germination” value was “significantly stimulated”.
